Measured values reported in BindingDB's records for doi:10.7270/Q2C24TWT (Burnham Center For Chemical Genomics, 2010).

Molecular target: G-protein coupled receptor 35 (Homo sapiens, UniProt Q9HC97)
Experiment: inhibitors of PMA/ionomycin-induced NF-kB reporter, SAR follow-up, cell-based, PMA/ionomycin inducer, luciferase, set 2 (AID 2792)

G-protein coupled receptor 35, sequence (Q9HC97 whole entry): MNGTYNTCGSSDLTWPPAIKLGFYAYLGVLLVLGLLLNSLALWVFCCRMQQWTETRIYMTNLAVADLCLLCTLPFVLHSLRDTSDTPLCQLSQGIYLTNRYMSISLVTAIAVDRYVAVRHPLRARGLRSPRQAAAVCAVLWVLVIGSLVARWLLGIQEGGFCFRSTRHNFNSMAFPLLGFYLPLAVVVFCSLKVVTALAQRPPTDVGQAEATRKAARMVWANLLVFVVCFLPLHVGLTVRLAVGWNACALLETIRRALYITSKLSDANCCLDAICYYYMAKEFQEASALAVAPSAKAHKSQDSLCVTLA

Row | Structure (SMILES) | IC50 [µM]
1 | CCCn1c(SCC(=O)Nc2nc3c(s2)CCCC3)nc2c1c(=O)n(C)c(=O)n2C [2-(1,3-Dimethyl-2,6-dioxo-7-propyl-2,3,6,7-tetrahydro-1H-purin-8-ylsulfanyl)-N-(4,5,6,7-tetrahydro-benzothiazol-2-yl)-acetamide] | 17.8
2 | CCCCn1c(CN2CCN(c3cccc(Cl)c3)CC2)nc2c1c(=O)n(C)c(=O)n2C [MLS-0004183.0001] | 3.51
